In ChEMBL document CHEMBL4049447 (J Med Chem, 2017):

Columns and labels:
[1] = Apparent permeability across apical to basolateral side in human Caco2 cells assessed as drug recovery at 10 uM measured up to 2 hrs by ESI-LC/MS/MS analysis; type: ADME, cell-based; conditions: Caco-2, read-out: Drug recovery
[2] = Apparent permeability across basolateral to apical side in human Caco2 cells assessed as drug recovery at 10 uM measured up to 2 hrs by ESI-LC/MS/MS analysis; type: ADME, cell-based; conditions: Caco-2, read-out: Drug recovery

With Nc1ccc2ccc(CCNCCc3cccc(Cl)c3)cc2n1 the recovery at 2 h, 10 µM [1] was 63% and the recovery at 2 h, 10 µM [2] was 103%.
